Read-outs that look alike come from different tables or passages of the source.
Key:
[1] = target: LBD of chemoreceptor R2 (WP_136157342.1) (Brenneria roseae, UniProt A0A2U1TV64, H128N/K136R); assay type: binding
Procedure: (§1) Plasmids for the overexpression of the different proteins were transformed into E. coli BL21(DE3). The resulting strains were grown under continuous stirring (200 rpm) at 30 °C in 2-L Erlenmeyer flasks containing 500 mL of LB medium supplemented with 50 μg/mL kanamycin. At an OD660 of 0.5, protein expression was induced by the addition of 0.1 mM isopropyl β-D-1-thiogalactopyranoside. Growth was continued at 16 °C overnight prior to cell harvesting by centrifugation at 10,000 × g for 20 min. Cell pellets were resuspended in buffer A (Additional file 2: Table S4) and subsequently broken by French press treatment at 62.5 lb/in^2. After centrifugation at 20,000 × g for 30 min, the supernatants were loaded onto 5-mL HisTrap HP columns (Amersham Biosciences) equilibrated with buffer A, and the proteins were eluted with a linear gradient of buffer B (Additional file 2: Table S4). All proteins contain a hexa-histidine tag at the N-terminal extension (Additional file 2: Table S3) and were purified at 4 °C. The purified proteins were dialyzed overnight into the corresponding analysis buffers (Additional file 2: Table S4) for immediate analysis.
(§2) All experiments were conducted on a VP microcalorimeter (Microcal, MA) at 15 °C for PacP-LBD and at 20 °C for the remaining proteins. Proteins were dialyzed into the analysis buffers specified in Additional file 2: Table S4, placed into the sample cell and titrated with aliquots of ligand solutions (1 to 10 mM) freshly prepared in dialysis buffer. The mean enthalpies measured from the injection of the ligands into the analysis buffer were subtracted from the raw titration data prior to data analysis with the MicroCal version of ORIGIN. The data were fitted with the “One binding site model” of ORIGIN.

[2] = target: ligand binding domain of the chemoreceptor ECA_RS12390 (PacP-LBD, R1, WP_011094075.1) (Pectobacterium atrosepticum, UniProt Q6D464); assay: ITC binding to PacP-LBD; settings: 15 °C, Nb = no binding
ligand binding domain of the chemoreceptor ECA_RS12390 (PacP-LBD, R1, WP_011094075.1), sequence (Q6D464 entry or part of it): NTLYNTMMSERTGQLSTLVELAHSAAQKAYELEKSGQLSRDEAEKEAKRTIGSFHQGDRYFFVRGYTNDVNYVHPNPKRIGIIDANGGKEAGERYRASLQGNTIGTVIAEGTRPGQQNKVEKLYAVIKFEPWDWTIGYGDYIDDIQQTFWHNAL
Procedure: as §1, §2

[3] = target: LBD of chemoreceptor R5 (WP_028444678.1); assay: ITC binding to R5-LBD; parameters: species or system Chitinimonas koreensis; settings: 20 °C, Nb = no binding
Procedure: as §1, §2

[4] = target: LBD of chemoreceptor R6 (WP_174062248.1); assay: ITC binding to R6-LBD; parameters: species or system Agrobacterium larrymoorei; settings: 20 °C, Nb = no binding
Procedure: as §1, §2

[5] = target: LBD of chemoreceptor R9 (WP_189529961.1) (Paludibacterium paludis, UniProt A0A918NWY2); assay: ITC binding to R9-LBD; settings: 20 °C, Nb = no binding
LBD of chemoreceptor R9 (WP_189529961.1), sequence (A0A918NWY2 entry or part of it): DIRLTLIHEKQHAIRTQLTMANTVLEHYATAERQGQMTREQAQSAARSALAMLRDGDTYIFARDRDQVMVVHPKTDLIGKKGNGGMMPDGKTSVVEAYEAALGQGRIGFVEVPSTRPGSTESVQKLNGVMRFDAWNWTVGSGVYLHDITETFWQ
Procedure: as §1, §2

[6] = target: LBD of chemoreceptor R10 (WP_028866120.1); assay: ITC binding to R10-LBD; parameters: species or system Psychromonas aquimarina; settings: 20 °C, Nb = no binding
Procedure: as §1, §2

[7] = tested on: ECA_RS12390-LBD (PacP-LBD); assay: Thermal shift ligand screening of PacP-LBD; assay type: binding, Pectobacterium atrosepticum; settings: thermal shift assay, Biolog arrays PM1, PM2A, PM3B, PM4A
Procedure: Assays were carried out on a MyIQ2 Real-Time PCR instrument (Bio-Rad, Hercules, CA, USA). Ligand solutions were prepared by dissolving the array compounds in 50 µL of Milli-Q water, which, according to the manufacturer, corresponds to a concentration of 10–20 mM. Freshly purified proteins were dialyzed into analysis buffer (Additional file 2: Table S4). Compound arrays PM1, PM2A (carbon sources), PM3B (nitrogen sources), and PM4A (phosphorus and sulfur sources) from Biolog (https://www.biolog.com/) were used. The compositions of these arrays are provided in Additional file 2: Table S1. The experiments were conducted in 96-well plates, and each assay mixture contained 20 µL of the dialyzed protein (at 80–50 µM), 2 µL of 5 × SYPRO orange (Life Technologies, Eugene, Oregon, USA), and 2.5 µL of the resuspended array compound or the equivalent amount of buffer in the ligand-free control. The samples were heated from 23 to 85 °C at a scan rate of 1 °C/min. The protein unfolding curves were monitored by detecting changes in SYPRO® Orange fluorescence. The Tm values were determined from the first derivative values of the raw fluorescence data.

[8] = target: LBD of chemoreceptor R3 (WP_006464688.1) (Herbaspirillum frisingense, UniProt A0ABU1PC34); assay: ITC binding to R3-LBD; settings: 20 °C, Nb = no binding
LBD of chemoreceptor R3 (WP_006464688.1), sequence (A0ABU1PC34 entry or part of it): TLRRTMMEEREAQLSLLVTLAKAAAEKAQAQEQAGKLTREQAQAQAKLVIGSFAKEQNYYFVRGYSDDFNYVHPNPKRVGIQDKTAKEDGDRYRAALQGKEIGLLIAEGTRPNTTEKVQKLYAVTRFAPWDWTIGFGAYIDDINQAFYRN
Procedure: as §1, §2

[9] = target: LBD of chemoreceptor R4 (WP_158281851.1) (Rivihabitans pingtungensis, UniProt A0A318KJN4); assay: ITC binding to R4-LBD; parameters: species or system Rivicola pingtungensis; settings: 20 °C, Nb = no binding
LBD of chemoreceptor R4 (WP_158281851.1), sequence (A0A318KJN4 entry or part of it): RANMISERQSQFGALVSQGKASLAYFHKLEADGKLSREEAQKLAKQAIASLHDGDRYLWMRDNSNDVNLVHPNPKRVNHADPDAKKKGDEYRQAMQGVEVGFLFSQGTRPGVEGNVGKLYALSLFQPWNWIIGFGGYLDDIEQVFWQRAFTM
Procedure: as §1, §2

[10] = target: LBD of chemoreceptor R7 (WP_019915375.1); assay: ITC binding to R7-LBD; parameters: species or system Methyloversatilis discipulorum; settings: 20 °C, Nb = no binding
LBD of chemoreceptor R7 (WP_019915375.1), sequence (as listed by the source): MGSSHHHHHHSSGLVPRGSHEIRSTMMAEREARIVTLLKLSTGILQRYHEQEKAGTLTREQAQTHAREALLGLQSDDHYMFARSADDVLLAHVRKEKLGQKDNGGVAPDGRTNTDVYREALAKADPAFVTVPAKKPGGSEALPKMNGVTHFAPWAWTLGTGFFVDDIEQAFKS
Procedure: as §1, §2

P. atrosepticum SCRI1043 = assay: Quantitative capillary chemotaxis assay, wild type; assay type: cell-based, Pectobacterium atrosepticum; settings: wild type SCRI1043, 1 mM ligand, 30 min
Procedure: (§3) Overnight cultures of P. atrosepticum SCRI1043 were grown at 30 °C in minimal medium. At an OD660 of 0.4–0.45, the cultures were washed twice with chemotaxis buffer (50 mM K2HPO4/KH2PO4, 20 μM EDTA, 0.05% (v/v) glycerol, pH 7.0) and diluted to an OD660 of 0.1 in the same buffer. Subsequently, 230 μL of the resulting bacterial suspension was placed into the wells of 96-well plates. One-microliter capillary tubes (P1424, Microcaps; Drummond Scientific) were heat-sealed at one end and filled with either chemotaxis buffer (negative control) or chemotaxis buffer containing PacP ligands at a concentration of 1 mM. The capillaries were immersed in the bacterial suspensions at their open ends. After 30 min at room temperature, the capillaries were removed from the bacterial suspensions, rinsed with sterile water, and the contents were expelled into 1 mL of 40 mM K2HPO4, 15 mM KH2PO4. Serial dilutions were plated onto minimal medium supplemented with 15 mM glucose as the carbon source. The number of colony-forming units was determined after 36 h of incubation at 30 °C. In all the cases, the data were corrected with the number of cells that swam into the buffer-containing capillaries.

[11] = tested on: P. atrosepticum SCRI1043 pacP mutant (MpacP); assay: Quantitative capillary chemotaxis assay, pacP mutant; assay type: cell-based, Pectobacterium atrosepticum; settings: 1 mM ligand
From the text: A mutant defective in ECA_RS12390 was constructed by homologous recombination using a derivative plasmid of the suicide vector pKNG101. Briefly, a 0.5-kb fragment corresponding to the region encoding the LBD of ECA_RS12390 was amplified by the primers specified in Additional file 2: Table S2 and cloned into pGEM®-T. The resulting plasmid pGEM::ECA_RS12390 was digested with XmaI, and the 0.5-kb insert was cloned into the same site at pKNG101 to generate pKNG101::ECA_RS12390. This plasmid was subsequently transformed into P. atrosepticum SRCI1043 via biparental conjugation using E. coli β2163. All the plasmids were verified by PCR and sequencing. The pETb(+) derivatives encoding the LBD of the different receptors analyzed in this study (Table 1) were purchased from GeneScript. Plasmid pBBR-ECA_RS12390 was constructed by amplifying the pacP gene using the primers detailed in Additional file 2: Table S2 and cloning of the PCR product into the NdeI/BamHI sites of pBBR1MCS2_START. The sequences of the proteins analyzed in this study are provided in Additional file 2: Table S3. The ECA_RS12390 nucleotide sequence is available in the published genome of P. atrosepticum SCRI1043 [60].
as §3

[12] = tested on: Pectobacterium atrosepticum SCRI1043; assay: Growth experiment, sole carbon source; assay type: cell-based; settings: PFM9 minimal medium, 5 mM ligand, 30 °C, 48 h
Procedure: (§4) P. atrosepticum SCRI1043 was cultured overnight in phosphate-free M9-based medium (PFM9) supplemented with 20 mM glucose as the carbon source and 500 µM inorganic phosphate as the phosphate source. Cultures were washed and then diluted to an OD600 of 0.02 in PFM9 supplemented with different PacP ligands as the sole carbon or phosphorous source at a final concentration of 5 mM. Subsequently, 200 µL aliquots of these cultures were transferred into microwell plates, which were subsequently grown at 30 °C on a Bioscreen microbiological growth analyzer (Oy Growth Curves Ab Ltd., Helsinki, Finland) for 48 h.

[13] = tested on: Pectobacterium atrosepticum SCRI1043; assay: Growth experiment, sole phosphorus source; assay type: cell-based; settings: PFM9 minimal medium, 5 mM ligand, 30 °C, 48 h
Procedure: as §4

ITC binding to R7-LBD = assay: ITC binding to R7-LBD; parameters: species or system Methyloversatilis discipulorum; settings: 20 °C, Nb = no binding
Procedure: as §1, §2

[14] = tested on: Bdellovibrio bacteriovorus; parameters: method as in PMID 119030, PMID 500565; settings: cited from earlier work
Bacillus subtilis = tested on: Bacillus subtilis; parameters: method as in PMID 119030, PMID 500565; settings: cited from earlier work
[15] = ITC, 20 °C, R2 LBD, Nb = no binding

LBD of chemoreceptor R2 (WP_136157342.1), sequence (A0A2U1TV64 28-178 H128N/K136R): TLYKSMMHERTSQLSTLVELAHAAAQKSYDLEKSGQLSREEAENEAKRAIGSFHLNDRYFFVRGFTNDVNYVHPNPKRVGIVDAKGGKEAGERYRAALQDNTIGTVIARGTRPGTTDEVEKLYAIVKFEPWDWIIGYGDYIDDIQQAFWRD

## CCCCCCC(N)C(=O)O (racemic) [D,L-aminocaprylic acid]
[1]; [15]
  KD: did not reveal binding

## O=C(O)[C@H](CO)OP(=O)(O)O [2-phosphoglycerate]
[2]
  KD: No binding

## O=C(O)CC(Br)C(=O)O (stereo not shown) [Bromosuccinate]
[3]
  KD: Nb
[4]
  KD: Nb
[5]
  Kd: 200 ± 13 µM
[6]
  KD: Nb

## O=C(O)CC(O)(CC(=O)O)C(=O)O [Citrate]
[3]
  Kd: 10 ± 2 µM
[4]
  KD: Nb
[5]
  KD: Nb
[6]
  KD: Nb

## O=C(O)/C=C/C(=O)O [Fumarate]
[3]
  Kd: 68 ± 6 µM
[4]
  Kd: 90 ± 4 µM
[5]
  KD: Nb
[6]
  KD: Nb

## O=C(O)CO [Glycolate]
[3]
  KD: Nb
[4]
  KD: Nb
[5]
  KD: Nb
[6]
  Kd: 322 ± 114 µM

## N[C@@H](CS(=O)(=O)O)C(=O)O [L-cysteic acid]
[1]; [15]
  KD: did not reveal binding

## C[C@H](O)C(=O)O [L-lactate]
[3]
  KD: Nb
[4]
  KD: Nb
[5]
  KD: Nb
[6]
  Kd: 463 ± 51 µM

## O=C(O)CC(O)C(=O)O (stereo not shown) [Malate]
[3]
  Kd: 61 ± 2 µM
[4]
  Kd: 63 ± 1 µM
[5]
  Kd: 185 ± 5 µM
[6]
  KD: Nb

## CC(CC(=O)O)C(=O)O (stereo not shown) [Methylsuccinate]
[3]
  KD: Nb
[4]
  KD: Nb
[5]
  Kd: 254 ± 53 µM
[6]
  KD: Nb

## CC(=O)C(=O)O [Pyruvate]
[2]
  KD: did not bind

## O=C(O)CCC(=O)O [Succinate]
[3]
  Kd: 127 ± 5 µM
[4]
  Kd: 90 ± 4 µM
[5]
  KD: Nb
[6]
  Kd: 362 ± 23 µM

## O=C(O)CC(CC(=O)O)C(=O)O [Tricarballylate]
[3]
  Kd: 15 ± 1 µM
[4]
  KD: Nb
[5]
  Kd: 138 ± 33 µM
[6]
  KD: Nb

## CC(=O)O [acetic acid]
[1]
  KD: did not reveal binding

## CC(=O)CC(=O)O [acetoacetic acid]
[1]; [15]
  KD: did not reveal binding

## CCCCCC(=O)O [caproic acid]
[1]; [15]
  KD: did not reveal binding

## NC(=O)OP(=O)(O)O [carbamoylphosphate]
[2]
  KD: did not result in measurable heat release
[7]
  Tm change with respect to the ligand-free protein: significant increases in Tm

## O=C(CO)COP(=O)(O)O [dihydroxyacetone phosphate]
[2]
  Kd: 13 ± 1 µM
[8]
  KD: bound
  Kd: 109 ± 14 µM
[9]
  Kd: 230 ± 10 µM
[3]
  KD: Nb
[4]
  KD: Nb
[10]
  KD: Nb
[5]
  KD: Nb
[6]
  KD: Nb
P. atrosepticum SCRI1043
  chemotaxis (capillary assay): Modest chemoattraction
[11]
  chemotaxis (capillary assay): Only glycerol 2-phosphate served as an attractant for the mutant
[12]
  growth as sole carbon source: devoid of apparent metabolic value
[13]
  growth as sole phosphorus source: devoid of apparent metabolic value

## O=CO [formic acid]
[1]
  KD: did not reveal binding

## O=CC(CO)OP(=O)(O)O (stereo not shown) [glyceraldehyde 2-phosphate]
[10]
  KD: bound

## O=P(O)(O)OC(CO)CO [glycerol 2-phosphate]
[2]
  Kd: 72 ± 2 µM
[8]
  KD: bound
  Kd: 36 ± 2 µM
[9]
  Kd: 60 ± 2 µM
[3]
  KD: Nb
[4]
  KD: Nb
ITC binding to R7-LBD
  Kd: 223 ± 45 µM
[5]
  KD: Nb
[6]
  KD: Nb
P. atrosepticum SCRI1043
  chemotaxis (capillary assay): Modest chemoattraction
[11]
  chemotaxis (capillary assay): served as an attractant
[13]
  growth as sole phosphorus source: permitted growth
[14]
  chemotaxis: weak chemotaxis
Bacillus subtilis
  chemotaxis: weak chemotaxis

## CC(O)C(=O)O (stereo not shown) [lactate]
[2]
  KD: did not bind

## CCC(=O)O [propionic acid]
[1]; [15]
  KD: did not reveal binding

— PMC12395807, “Chemoreceptor family in plant-associated bacteria responds preferentially to the plant signal molecule glycerol 3-phosphate” (Genome Biology, 2025)
